Measured values reported in patent publication US8598132B2, “Glycosylated indolocarbazoles, method for obtaining same and uses thereof” (Universidad de Oviedo, priority 2008, dated 2013).

Assays:
HT29 (colon) = assay: SRB anti-tumour (growth inhibition) assay, HT29; assay type: cell-based; settings: Homo sapiens, HT-29, 48 h exposure, read-out: GI50 (concentration inhibiting 50% of cell growth)
Procedure: The compounds generated were tested against a series of cell lines from tumours. It quantitatively determined the cell growth and the viability, using a colorimetric assay type, using the reaction with sulforhodamine B (SRB), according to the technique described by Faircloth et al. (Journal of Tissue and Culture Methods 1988, 11, 201-205).
96-well microtitre plates are inoculated with cells (5×10^3 cells per well) in aliquots of 195 μl of medium, incubating them during 18 h, in a medium without added compound, to allow the cells to adhere to the surface. Next, the compounds to be tested are added, in samples of 5 μl, at a range of concentrations of 10 to 10^−8 μg/ml, dissolved in DMSO/EtOH (0.2% in PS buffer). After 48 h exposure, the anti-tumour effect is measured using the Sulforhodamine B (SRB) technique: the cells are fixed adding 50 μl of cold […] (50%) (w/v) and it is incubated for 60 min. at 4° C. The plates are washed with deionized water and dried. 100 μl of SRB solution (0.4% w/v in 1% acetic acid) to each well and it is incubated during 10 min. at ambient temperature. The non-bound SRB is eliminated, washing with 1% acetic acid. The plates are air dried and the bound colorant is dissolved with Tris buffer. The optical densities are read in an automatic plate spectrophotometer reader at a wavelength of 490 nm.
For the compounds of formula (III), (IV), (V), (VI), (VII), (VIII), (IX) and the compounds of formula (XII), (XIII), (XIV), (XV), (XVI) and (XVIII).

SYK = molecular target: T1, SYK (Homo sapiens, UniProt P43405); assay: LabChip (Caliper) kinase assay, SYK; assay type: biochemical; settings: for inhibition at 0.01 µM: compound at 10 nM; for inhibition at 0.01 µM / inhibition at 0.1 µM: read-out: remaining kinase activity (in %) / percentage of inhibition; for inhibition at 0.1 µM: compound at 100 nM; for IC50: ATP at Km, read-out: CI50 (the source's name)
T1 construct: purchased Carna Biosciences
Procedure: The analysis of kinase activity described here was performed using LabChip (Caliper Life Sciences), specifically the Caliper LC3000 and the EZ Reader II instruments.
The kinase assay used measures the conversion of a fluorescent peptide (substrate) to a phosphorylated product. The reaction mixture, in a microplate well, is introduced by a capillary in a chip where the non-phosphorylated substrate and the phosphorylated product are separated by […]. The intensity of the fluorescent signal over time is related to the reaction progress. The phosphorylated product migrates quicker than the non-phosphorylated substrate and the signals of the two forms of the peptide appear as differentiated peaks. The Caliper determines the peak height and calculates the ratio of product to the peak sum (P/(P+S)). This value is used to compare wells with compounds and wells with controls and thus determine the % of inhibition for the given product.
The followings kinases were used for the enzymatic inhibition studies, between brackets the value of the Michaelis-Menten constant, Km, of the ATP (Adenosine triphosphate) for each kinase, in μM: obtained from Carna Biosciences: MAPKAPK2 (4.6), AurA (3.6), AurB (5), PKCζ (3.8), RSK1 (23.3), PRAK (5), Erk1 (33.4), PKD2 (32.1), CK1d (16.3), CHK1 (33), ABL (61.7), FYN (36), LYNa (17), CHK2 (57.8), MET (79.5), LCK (28.5), SRC (38), GSK3β (7.3), Erk2 (62.1), PKACα (1.7), AKT2 (186.1), INSR (871.8), p38a (396.5), AKT1(48), MSK1 (21.2), PKCβ2 (84.8), ROCK2 (3.3), PIM2 (4.9), AMPK (38.6), KDR (164.8), IRAK4 (196.5), SGK1 (121.8), SYK (33.5); obtained from Invitrogen: CDK2 (57.6), BTK (123), HGK (80); obtained from Upstate: MST2 (36.6), PKGα (16), PAK2 (1.9), IGF1R (320), FGFR1 (171), MARK1 (33), CAMK2δ (22.4), c-TAK1 (66), DYRK1a (18.1), CaMK4 (3.9), FLT3 (350), c-Raf (6.2), P70S6K (95).
The compounds were dissolved in 100% DMSO and were diluted at 25 times the final concentration desired for the assay. In the case of the determination of Cl50, serial dilutions were made to reach eight concentrations and give rise to the inhibition curve. 1 μL of each concentration is transferred, in duplicate to a 384-well microplate. 12 μL of enzymatic buffer is added to each well containing purified kinase (several suppliers as indicated above), 100 mM HEPES, pH 7.5, 1 mM DTT (Calbiochem), 0.002% Brij-35 (Sigma) and also in presence of 10 mM MgCl2 as cofactor, except for INSR and IRAK4 wherein 10 mM MnCl2 is used instead of MgCl2. For the kinases CAMK26 and CAMK4, 1 mM CaCl2 and 6.7 μg/mL of calmodulin are also added. For KDR kinase, 0.05% of the CHAPSO detergent is added. For the c-Raf kinase, 10 mM MnCl2 is added. For PKCβ2 0.02 μg/mL of PS/PMA is added. For PKGα se 10 μM of cGMP (cyclic guanosine monophosphate) is added. The compound and the enzyme are left for 15 minutes preincubation and, then, the following are added to each well: 12 μL of peptide buffer/ATP containing 100 mM HEPES, pH 7.5, 1.5 μM peptide marker with fluorescein (specific for the corresponding kinase), ATP (at concentration KM), and 0.002% Brij-35 to start the reaction. Generally, the reactions are incubated for 1-1.5 h at ambient temperature to obtain an adequate conversion (15-40%) of the peptide to the phosphorylated product. The reactions were ended by the addition of 45 μL of buffer containing 0 mM EDTA. The microplates were read by the LabChip 3000 using a 12-channel LabChip. The P/(P+S) values were obtained as described above and the CI50 curves were generated using XIfit.
Table 9a has the 0150 data obtained in pairs of compound-kinase selected from the compounds of formula (VII), (VIII), (IX), (XVI), (XVII) and (XVIII) after taking inhibition measurements at 100 nM and 10 nM. Those couples that provide >70% of inhibition at 10 nM were consider for measuring its IC50. […]

| SMILES | GI50 (HT29 (colon)) [nM] | inhibition at 0.01 µM (SYK) [%] | inhibition at 0.1 µM (SYK) [%] | IC50 (SYK) [nM] |
| --- | --- | --- | --- | --- |
| C[C@@H]1O[C@@H](n2c3ccccc3c3c4c(c5c6ccccc6[nH]c5c32)C(=O)NC4=O)[C@H](O)[C@H](O)[C@H]1O [formula (III), N^13-1′-β-L-rhamnosylarcyriaflavin] | 2420 | 2 | -8 | – |
| C[C@@H]1O[C@@H](n2c3ccccc3c3c4c(c5c6ccccc6[nH]c5c32)C(=O)NC4=O)C[C@H](O)[C@H]1O [formula (IV), N^13-1′-β-L-olivosylarcyriaflavin] | 8790 | 11 | 35 | – |
| C[C@]12O[C@H](C[C@@H](O)[C@H]1O)n1c3ccccc3c3c4c(c5c6ccccc6n2c5c31)C(=O)NC4=O [formula (IX), N^12-5′(S)-N^13-1′-(R)-L-digitoxosylarcyriaflavin] | 8160 | – | – | 2.3 |
| C[C@@H]1O[C@@H](n2c3ccccc3c3c4c(c5c6ccccc6[nH]c5c32)C(=O)NC4=O)C[C@@H](O)[C@H]1O [formula (V), N^13-1′-β-L-digitoxosylarcyriaflavin] | 6390 | 13 | 24 | – |
| C[C@H]1O[C@@H](n2c3ccccc3c3c4c(c5c6ccccc6[nH]c5c32)C(=O)NC4=O)C[C@@H](O)[C@@H]1O [formula (VI), N^13-1′-β-D-olivosylarcyriaflavin] | 2160 | 5 | 31 | – |
| C[C@]12O[C@H]([C@H](O)[C@H](O)[C@H]1O)n1c3ccccc3c3c4c(c5c6ccccc6n2c5c31)C(=O)NC4=O [formula (VII), N^12-5′(S)-N^13-1′-(R)-L-rhamnosylarcyriaflavin] | 2450 | – | – | 1 |
| C[C@]12O[C@H](C[C@H](O)[C@H]1O)n1c3ccccc3c3c4c(c5c6ccccc6n2c5c31)C(=O)NC4=O [formula (VIII), N^12-5′(S)-N^13-1′-(R)-L-olivosylarcyriaflavin] | 11200 | – | – | 1.1 |
| C[C@@H]1O[C@@H](n2c3ccccc3c3c4c(c5c6ccccc6[nH]c5c32)CNC4=O)[C@H](O)[C@H](O)[C@H]1O [formula (XII), N^13-1′-β-L-rhamnosyl-k252c] | 2100 | 8 | 10 | – |
| C[C@@H]1O[C@@H](n2c3ccccc3c3c4c(c5c6ccccc6[nH]c5c32)CNC4=O)C[C@H](O)[C@H]1O [formula (XIII), N^13-1′-β-L-olivosyl-k252c] | 1520 | 12 | 30 | – |
| C[C@@H]1O[C@@H](n2c3ccccc3c3c4c(c5c6ccccc6[nH]c5c32)CNC4=O)C[C@@H](O)[C@H]1O [formula (XIV), N^13-1′-β-L-digitoxosyl-k252c] | 3400 | -1 | 11 | – |
| C[C@H]1O[C@@H](n2c3ccccc3c3c4c(c5c6ccccc6[nH]c5c32)CNC4=O)C[C@@H](O)[C@@H]1O [formula (XV), N^13-1′-β-D-olivosyl-k252c] | 3850 | 7 | 29 | – |
| C[C@]12O[C@H]([C@H](O)[C@H](O)[C@H]1O)n1c3ccccc3c3c4c(c5c6ccccc6n2c5c31)CNC4=O [formula (XVI), N^12-5′(S)-N^13-1′-(R)-L-rhamnosyl-k252c] | 870 | – | – | – |
| C[C@]12O[C@H](C[C@H](O)[C@H]1O)n1c3ccccc3c3c4c(c5c6ccccc6n2c5c31)CNC4=O [formula (XVII), N^12-5′(S)-N^13-1′-(R)-L-olivosyl-k252c] | 1210 | – | – | – |
| C[C@]12O[C@H](C[C@@H](O)[C@H]1O)n1c3ccccc3c3c4c(c5c6ccccc6n2c5c31)CNC4=O [formula (XVIII), N^12-5′(S)-N^13-1′-(R)-L-digitoxosyl-k252c] | 1520 | – | – | > 10 |
